Assay results taken from ChEMBL document CHEMBL5634096, “Design, synthesis and bioevaluation of PI3Kα-selective inhibitors as potential colorectal cancer drugs” (Eur J Med Chem, 2023).
Calls of active or inactive are those of the source. No cut-off for these calls is given here.

Experiments:
[1] = target: Serine/threonine-protein kinase 17A (Homo sapiens) (UniProt Q9UEE5); assay: Inhibition of human DRAK1 at 1 uM
[2] = target: Phosphatidylinositol 4,5-bisphosphate 3-kinase catalytic subunit beta isoform (Homo sapiens, UniProt P42338); assay: Inhibition of PI3Kbeta (unknown origin) by ADP-Glo luminescent kinase assay
HOS = assay: Antiproliferative activity against human HOS cells assessed as reduction in cell viability at 10 uM incubated for 24 to 48 hrs by CCK-8 assay; format: functional, cell-based; conditions: time lower […], time upper 48.0 hrs
[3] = tested on: Receptor-type tyrosine-protein kinase FLT3 (Homo sapiens), P36888 [D835Y]; assay: Inhibition of human FLT3 D835Y mutant at 1 uM
[4] = Volume of distribution in Sprague-Dawley rat at 5 mg/kg, iv measured upto 24 hrs by LC-MS analysis; format: ADME, organism-based; conditions: in vivo
HEK-293T = assay: Cytotoxicity against human HEK293T cells assessed as reduction in cell viability at 10 uM incubated for 24 to 48 hrs by CCK-8 assay; format: toxicity, cell-based; conditions: time 24-48 hrs
[5] = target: T1, Phosphatidylinositol 4,5-bisphosphate 3-kinase catalytic subunit delta isoform (Homo sapiens, UniProt O00329); assay: Inhibition of PI3Kdelta (unknown origin) by ADP-Glo luminescent kinase assay
T1 sequence (O00329 whole entry): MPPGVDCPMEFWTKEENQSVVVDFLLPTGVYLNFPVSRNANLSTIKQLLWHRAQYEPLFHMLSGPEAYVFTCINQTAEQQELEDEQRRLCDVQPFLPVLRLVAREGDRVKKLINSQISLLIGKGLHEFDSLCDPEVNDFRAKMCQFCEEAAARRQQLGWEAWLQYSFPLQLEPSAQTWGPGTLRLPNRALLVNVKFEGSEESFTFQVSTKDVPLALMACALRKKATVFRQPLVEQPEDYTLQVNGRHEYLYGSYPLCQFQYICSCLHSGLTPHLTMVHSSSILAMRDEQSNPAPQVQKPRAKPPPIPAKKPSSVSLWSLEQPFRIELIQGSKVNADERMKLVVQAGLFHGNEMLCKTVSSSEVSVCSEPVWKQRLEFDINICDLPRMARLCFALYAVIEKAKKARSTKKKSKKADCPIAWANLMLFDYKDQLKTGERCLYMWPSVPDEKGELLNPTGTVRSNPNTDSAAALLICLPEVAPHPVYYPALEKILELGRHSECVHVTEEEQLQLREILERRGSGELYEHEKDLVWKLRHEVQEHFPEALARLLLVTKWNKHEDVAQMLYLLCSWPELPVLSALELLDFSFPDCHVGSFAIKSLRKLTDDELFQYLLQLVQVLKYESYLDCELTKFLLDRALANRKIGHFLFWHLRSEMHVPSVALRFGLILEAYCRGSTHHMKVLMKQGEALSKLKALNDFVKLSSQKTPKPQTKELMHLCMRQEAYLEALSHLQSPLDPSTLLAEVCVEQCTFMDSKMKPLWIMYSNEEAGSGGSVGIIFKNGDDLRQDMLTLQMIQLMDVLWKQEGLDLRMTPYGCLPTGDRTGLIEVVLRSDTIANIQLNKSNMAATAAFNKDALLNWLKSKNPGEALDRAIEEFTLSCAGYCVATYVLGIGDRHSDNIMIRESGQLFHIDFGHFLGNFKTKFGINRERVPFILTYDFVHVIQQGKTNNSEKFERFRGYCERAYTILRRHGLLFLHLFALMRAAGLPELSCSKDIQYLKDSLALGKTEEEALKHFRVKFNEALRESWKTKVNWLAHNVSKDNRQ

[6] = Metabolic stability in artificial gastrointestinal fluid assessed as compound remaining measured upto 8 hrs by LC-MS/MS analysis; format: ADME
CAL-62 = assay: Antiproliferative activity against human CAL-62 cells assessed as reduction in cell viability at 10 uM incubated for 24 to 48 hrs by CCK-8 assay; format: functional, cell-based; conditions: time lower […], time upper 48.0 hrs
[7] = Cmax in Sprague-Dawley rat at 5 mg/kg, iv measured upto 24 hrs by LC-MS analysis; format: ADME, organism-based; conditions: in vivo
[8] = Metabolic stability in Sprague-Dawley rat liver microsomes assessed as intrinsic clearance at 5 ug/ml incubated for 1 hr in presence of NADPH by LC-MS/MS analysis; format: ADME, Microsome; conditions: dose 5 µg/ml
786-0 = assay: Antiproliferative activity against human 786-0 cells assessed as reduction in cell viability at 10 uM incubated for 24 to 48 hrs by CCK-8 assay; format: functional, cell-based; conditions: time lower […], time upper 48.0 hrs
HCT-116 [9] = assay: Induction of cell cycle arrest in human HCT-116 cells assessed as increase in accumulation of cells at G1/G0 phase at 3 to 12 uM incubated for 48 hrs by PI staining based flow cytometry analysis (reference value: 36.6 %); format: functional; conditions: dose 3-12 µM
A-375 = assay: Antiproliferative activity against human A-375 cells assessed as reduction in cell viability at 10 uM incubated for 24 to 48 hrs by CCK-8 assay; format: functional, cell-based; conditions: time lower […], time upper 48.0 hrs
[10] = MRT (0 to t) in Sprague-Dawley rat at 5 mg/kg, iv measured upto 24 hrs by LC-MS analysis; format: ADME, organism-based; conditions: in vivo
HCT-116 [11] = assay: Antiproliferative activity against human HCT-116 cells assessed as reduction in cell viability incubated for 24 to 48 hrs by CCK-8 assay; format: functional, cell-based
HCT-116 [12] = assay: Antiproliferative activity against human HCT-116 cells assessed as inhibition of PI3K phosphorylation incubated for 48 hrs by Western blotting analysis; format: functional, cell-based; conditions: dose 3-12 µM
[13] = target: Serine/threonine-protein kinase mTOR (Homo sapiens, UniProt P42345); assay: Inhibition of mTOR (unknown origin) by lance ultra assay
DU-145 = assay: Antiproliferative activity against human DU-145 cells assessed as reduction in cell viability at 10 uM incubated for 24 to 48 hrs by CCK-8 assay; format: functional, cell-based; conditions: time lower […], time upper 48.0 hrs
Cytochrome P450 2C19 = Cytochrome P450 2C19 (Homo sapiens, UniProt P33261); assay: Inhibition of CYP2C19 in human liver microsomes using omeprazole as substrate pre-incubated for 30 mins followed by substrate addition and measured after 15 mins in presence of NADPH by LC/MS analysis; format: ADME, Microsome
MCF7 = assay: Antiproliferative activity against human MCF7 cells assessed as reduction in cell viability incubated for 24 to 48 hrs by CCK-8 assay; format: functional, cell-based
HCT-116 [14] = assay: Antiproliferative activity against human HCT-116 cells assessed as inhibition of ERK1/2 phosphorylation incubated for 48 hrs by Western blotting analysis; format: functional, cell-based; conditions: dose 3-12 µM
HCT-116 [15] = assay: Antiproliferative activity against human HCT-116 cells assessed as inhibition of Akt phosphorylation incubated for 48 hrs by Western blotting analysis; format: functional, cell-based; conditions: dose 3-12 µM
5637 = assay: Antiproliferative activity against human 5637 cells assessed as reduction in cell viability at 10 uM incubated for 24 to 48 hrs by CCK-8 assay; format: functional, cell-based; conditions: time lower […], time upper 48.0 hrs
HCT-116 [16] = assay: Induction of cell cycle arrest at G1/G0 phase in human HCT-116 cells assessed as decrease in cyclinD1 expression incubated for 48 hrs by Western blotting analysis; format: functional, cell-based; conditions: dose 3-12 µM
GBC-SD = assay: Antiproliferative activity against human GBC-SD cells assessed as reduction in cell viability at 10 uM incubated for 24 to 48 hrs by CCK-8 assay; format: functional, cell-based; conditions: time lower […], time upper 48.0 hrs

Sequence of Cytochrome P450 2C19 (P33261 whole entry): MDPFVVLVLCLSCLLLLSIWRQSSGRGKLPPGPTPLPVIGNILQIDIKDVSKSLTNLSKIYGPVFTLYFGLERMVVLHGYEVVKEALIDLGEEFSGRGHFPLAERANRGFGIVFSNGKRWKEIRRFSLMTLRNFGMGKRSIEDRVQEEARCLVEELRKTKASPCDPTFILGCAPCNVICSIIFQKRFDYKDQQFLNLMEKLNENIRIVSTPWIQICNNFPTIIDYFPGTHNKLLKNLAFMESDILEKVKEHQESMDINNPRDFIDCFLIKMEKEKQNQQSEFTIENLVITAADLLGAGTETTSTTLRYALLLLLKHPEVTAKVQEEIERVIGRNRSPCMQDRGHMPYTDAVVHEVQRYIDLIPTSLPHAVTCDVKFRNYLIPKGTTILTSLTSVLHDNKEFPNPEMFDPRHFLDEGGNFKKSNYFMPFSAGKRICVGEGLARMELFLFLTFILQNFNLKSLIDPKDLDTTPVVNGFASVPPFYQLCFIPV
Sequence of Phosphatidylinositol 4,5-bisphosphate 3-kinase catalytic subunit beta isoform (P42338 whole entry, canonical isoform): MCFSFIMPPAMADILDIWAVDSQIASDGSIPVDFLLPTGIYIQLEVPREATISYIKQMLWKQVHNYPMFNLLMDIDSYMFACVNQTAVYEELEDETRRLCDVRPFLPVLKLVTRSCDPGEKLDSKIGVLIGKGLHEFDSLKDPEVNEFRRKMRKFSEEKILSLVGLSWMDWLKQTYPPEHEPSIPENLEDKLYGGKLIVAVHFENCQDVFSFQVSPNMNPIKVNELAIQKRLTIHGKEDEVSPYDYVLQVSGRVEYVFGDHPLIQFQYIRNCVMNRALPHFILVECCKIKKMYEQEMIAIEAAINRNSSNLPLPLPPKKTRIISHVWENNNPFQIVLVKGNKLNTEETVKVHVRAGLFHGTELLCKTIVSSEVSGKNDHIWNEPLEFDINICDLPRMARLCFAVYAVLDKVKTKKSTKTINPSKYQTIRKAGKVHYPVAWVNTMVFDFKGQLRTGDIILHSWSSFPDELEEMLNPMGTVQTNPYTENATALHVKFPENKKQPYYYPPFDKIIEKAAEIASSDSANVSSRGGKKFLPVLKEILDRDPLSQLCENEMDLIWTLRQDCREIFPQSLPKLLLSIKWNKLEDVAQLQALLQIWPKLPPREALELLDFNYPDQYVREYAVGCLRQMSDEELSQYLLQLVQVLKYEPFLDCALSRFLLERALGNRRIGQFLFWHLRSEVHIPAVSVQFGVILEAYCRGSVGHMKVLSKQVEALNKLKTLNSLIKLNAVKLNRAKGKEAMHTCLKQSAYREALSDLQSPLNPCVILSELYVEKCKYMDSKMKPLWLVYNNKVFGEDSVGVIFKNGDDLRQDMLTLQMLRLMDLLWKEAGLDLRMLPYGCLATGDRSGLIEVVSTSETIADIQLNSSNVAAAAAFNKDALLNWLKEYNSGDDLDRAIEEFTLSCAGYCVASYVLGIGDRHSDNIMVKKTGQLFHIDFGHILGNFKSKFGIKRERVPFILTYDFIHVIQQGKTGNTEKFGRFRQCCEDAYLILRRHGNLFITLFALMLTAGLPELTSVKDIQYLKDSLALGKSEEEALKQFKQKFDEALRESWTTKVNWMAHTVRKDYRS
Sequence of Serine/threonine-protein kinase 17A (Homo sapiens) (Q9UEE5 whole entry, canonical isoform): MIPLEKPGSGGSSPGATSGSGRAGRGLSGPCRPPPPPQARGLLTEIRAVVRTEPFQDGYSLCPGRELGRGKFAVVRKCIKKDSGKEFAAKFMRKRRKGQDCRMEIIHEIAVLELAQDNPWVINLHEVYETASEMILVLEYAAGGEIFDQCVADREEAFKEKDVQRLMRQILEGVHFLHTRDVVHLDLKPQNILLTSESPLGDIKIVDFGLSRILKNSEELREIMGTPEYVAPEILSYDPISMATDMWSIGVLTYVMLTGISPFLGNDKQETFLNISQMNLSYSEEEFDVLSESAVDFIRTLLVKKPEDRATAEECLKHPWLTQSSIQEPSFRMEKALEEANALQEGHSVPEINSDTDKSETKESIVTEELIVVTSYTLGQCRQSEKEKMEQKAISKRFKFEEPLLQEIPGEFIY

Structure (SMILES): Nc1nc2cc(-c3ccc4ncc(N5C[C@@H]6OCCO[C@@H]6C5)nc4c3)ccc2o1
- inhibition [1]: Active
- IC50 [2]: 0.45 µM
- Activity (HOS): Active
- inhibition [3]: Active
- Vd [4]: 5.2 L/kg
- Activity (HEK-293T): Toxic
- IC50 [5]: 0.111 µM
- Stability [6]: Stable
- Activity (CAL-62): Active
- Cmax [7]: 6000 ng/mL
- CLH [8]: 6 µL/min/mg
- Activity (786-0): Active
- Activity (HCT-116 [9]): 43.2%
- Activity (A-375): Active
- MRT last at 24 h [10]: 1.7 h
- IC50 (HCT-116 [11]): 3.79 µM
- Activity (HCT-116 [12]): Dose-Dependent Effect
- IC50 [13]: 0.601 µM
- Activity (DU-145): Active
- IC50 (Cytochrome P450 2C19): > 10 µM
- IC50 (MCF7): 0.75 µM
- Activity (HCT-116 [14]): Dose-Dependent Effect
- Activity (HCT-116 [15]): Dose-Dependent Effect
- Activity 5637: Active
- Activity (HCT-116 [16]): Dose-Dependent Effect
- Activity (GBC-SD): Active
